From patent US8916592B2, “Malononitrile compounds” (Merial Limited, priority 2005, dated 2014) come the findings set out here.

What all share (assay type): in vivo
Data set [1] relates to Boll Weevil (Anthonomus grandis). The data set is described as follows: Activity against Boll Weevil (eggs sprayed in microtiterplates). To be noted: 3 to 5 days, untreated controls 0% mortality. Here is the method: The active compounds were formulated in 1:3 DMSO:water. 10 to 15 eggs were placed into microtiterplates filled with 2% agar-agar in water and 300 ppm formaline. The eggs were sprayed with 20 μl of the test solution, the plates were sealed with pierced foils and kept at 24-26° C. and 75-85% humidity with a day/night cycle for 3 to 5 days. Mortality was assessed on the basis of the remaining unhatched eggs or larvae on the agar surface and/or quantity and depth of the digging channels caused by the hatched larvae. Tests were replicated 2 times.

Data set [2] has as its system Mediterranean Fruitfly (Ceratitis capitata). The data set can be described thus: Activity against Mediterranean Fruitfly (eggs sprayed in microtiterplates). To be noted: 144 h, 6 days, untreated controls 0% mortality. How it is done: The active compounds were formulated in 1:3 DMSO:water. 50 to 80 eggs were placed into microtiterplates filled with 0.5% agar-agar and 14% diet in water. The eggs were sprayed with 5 μl of the test solution, the plates were sealed with pierced foils and kept at 27-29° C. and 75-85% humidity under fluorescent light for 6 days. Mortality was assessed on the baswas of the agility of the hatched larvae. Tests were replicated 2 times.

The subject of data set [3] is Vetch Aphid (Megoura viciae). The data set is described as follows: Activity against Vetch Aphid (sprayed bean leaf disks). As to conditions: foliar, 144 h, adult aphids, 6 days, untreated controls 0% mortality. How it is done: The active compounds were formulated in 1:3 DMSO:water. Bean leaf disks were placed into microtiterplates filled with 0.8% agar-agar and 2.5 ppm OPUS™. The leaf disks were sprayed with 2.5 μl of the test solution and 5 to 8 adult aphids were placed into the microtiterplates which were then closed and kept at 22-24° C. and 35-45% under fluorescent light for 6 days. Mortality was assessed on the basis of vital, reproduced aphids. Tests were replicated 2 times.

The subject of data set [4] is Brown Planthopper (Nilaparvata lugens). The data set is described as follows: Activity against Brown Planthopper (sprayed rice seedlings). To be noted: 300 ppm, 10 adults, recorded after 24, 72 and 120 hours. How it is done: The active compounds were formulated in 50:50 acetone:water. Potted rice seedlings were sprayed with 10 ml test solution, air dried, placed in cages and inoculated with 10 adults. Percent mortality was recorded after 24, 72 and 120 hours.

On to `N#CC(C#N)(CSC(F)(F)F)Cc1ccc(Cl)c(Cl)c1` [Compound I-1, 2-(3,4-dichloro-benzyl)-2-trifluoromethylsulfanylmethyl-malononitrile], for which the mortality at 2500 ppm in data set [1] and in data set [2] was more than 75% throughout.

With `N#CC(C#N)(CCSC(F)(F)F)Cc1ccc(Cl)c(Cl)c1` [Compound I-7, 2-(3,4-Dichloro-benzyl)-2-(2-trifluoromethylsulfanyl-ethyl)-malononitrile], the mortality at 2500 ppm in data set [1], in data set [2] and in data set [3] was more than 75% throughout.

Take `N#CC(C#N)(CC[S+]([O-])C(F)(F)F)Cc1ccc(Cl)c(Cl)c1` (stereo not shown) [Compound I-15, 2-(3,4-Dichlorobenzyl)-2-(2-trifluoromethanesulfinyl-ethyl)-malononitrile]: the mortality at 2500 ppm in data set [1] and in data set [2] was more than 75% in each case.

For `N#CC(C#N)(CCS(=O)(=O)C(F)(F)F)Cc1ccc(Cl)c(Cl)c1` [Compound I-19, 2-(3,4-Dichlorobenzyl)-2-(2-trifluoromethanesulfonyl-ethyl)-malononitrile], the mortality at 2500 ppm in data set [1] and in data set [2] was more than 75% each time.

As to `CC(C)(C)c1cc(CC(C#N)(C#N)CCSC(F)(F)F)on1` [Compound I-35], the mortality (in general, the percentage killed) in data set [4] is listed as “over 90%”.
